Common to all, as to type: ADME, organism-based
The nature of series [1]: Central volume of distribution in Sprague-Dawley rat at 1000 mg/kg, iv administered as 3 mins short-term infusion. Further details: dose 1000 mg/kg, route intravenous. Conditions: in vivo.
Series [2] is described as follows: Central volume of distribution in Sprague-Dawley rat at 375 mg/kg, iv administered as single infusion. Further details: dose 375 mg/kg, route intravenous. Conditions: in vivo.
Series [3] is described as follows: Clearance in Sprague-Dawley rat at 375 mg/kg, iv administered as single infusion. Further details: dose 375 mg/kg, route intravenous. Conditions: in vivo.
Series [4] is described as follows: Clearance in Sprague-Dawley rat at 1000 mg/kg, iv administered as 3 mins short-term infusion. Further details: dose 1000 mg/kg, route intravenous. Conditions: in vivo.
Series [5] is described as follows: Oral bioavailability in Sprague-Dawley rat at 750 mg/kg, po. Conditions: in vivo, pooled result: one value given for 3 cell lines, strains, targets or settings.
The nature of series [6]: Oral bioavailability in Sprague-Dawley rat at 3000 mg/kg, po. Conditions: in vivo.
The subject of series [7] is Rattus norvegicus. Nature of the series: Mean transit time in Sprague-Dawley rat assessed as L-eflornithine at 750 to 3000 mg/kg, po. Also on record: dose 750-3000 mg/kg, route oral. Conditions: in vivo.
The subject of series [8] is Rattus norvegicus. Nature of the series: Intercompartmental clearance in Sprague-Dawley rat assessed as L-eflornithine at 1000 mg/kg, iv administered as 3 mins short-term infusion. Further details: dose 1000 mg/kg, route intravenous. Conditions: in vivo, 0.05 h.
In series [9] the test system is Rattus norvegicus. The series is described as follows: Intercompartmental clearance in Sprague-Dawley rat assessed as D-eflornithine at 375 mg/kg, iv administered as single infusion. Also on record: dose 375 mg/kg, route intravenous. Conditions: in vivo.
Series [10] concerns Rattus norvegicus. Nature of the series: Intercompartmental clearance in Sprague-Dawley rat assessed as L-eflornithine at 375 mg/kg, iv administered as single infusion. Further details: dose 375 mg/kg, route intravenous. Conditions: in vivo.
Series [11] relates to Rattus norvegicus. The series is described as follows: Mean transit time in Sprague-Dawley rat assessed as D-eflornithine at 750 to 3000 mg/kg, po. Further details: dose 750-3000 mg/kg, route oral. Conditions: in vivo.
Series [12] deals with Rattus norvegicus. The series is described as follows: Intercompartmental clearance in Sprague-Dawley rat assessed as D-eflornithine at 1000 mg/kg, iv administered as 3 mins short-term infusion. Further details: dose 1000 mg/kg, route intravenous. Conditions: in vivo, 0.05 h.

Results on 3 compounds are retold here after ChEMBL document CHEMBL1275478, “Enantioselective and nonlinear intestinal absorption of eflornithine in the rat” (Antimicrob Agents Chemother, 2008).

As a reminder, the Vd is a proportionality between amount in the body and measured concentration, not a real space. Higher therefore signals extensive tissue distribution. For orientation: clearance means the volume of plasma or blood freed of the substance per unit of time. A low value points to a low capacity for elimination. By bioavailability is commonly meant the share of a dose that reaches the circulation, judged against a reference dose that is usually intravenous. The low end stands for little systemic uptake, the high end for much systemic uptake. With `NCCC[C@](N)(C(=O)O)C(F)F` [EFLORNITHINE, (S)-], the Vd in [1] and in series [2] was 0.404 L/kg throughout. Further, the clearance in [3] and in [4] was 14.5 mL/min/kg in each case. The figures for the bioavailability in series [5] and in series [6] were 41% and 47%, respectively.
The compound `NCCC[C@@](N)(C(=O)O)C(F)F` [D-EFLORNITHINE] gave a Vd in series [1] of 0.401 L/kg. The clearance in series [3] worked out at 12.6 mL/min/kg.
As to `NCCCC(N)(C(=O)O)C(F)F` (racemic) [EFLORNITHINE], the MTT in series [7] and in [11] was 88 min each time. Besides, the CL in series [8], in series [9], in series [10] and in series [12] was 1.2 mL/min/kg each time. In addition, the bioavailability in series [5] was 62.3%; in [6], 82.7%.
